Key:
GnmT-SH = test system: T1, GnmT-SH; assay: pyruvate release, OPD derivatization, HPLC; type: biochemical, Streptomyces sp. CB01883; conditions: 0.2 mM PLP, 20 mM KCl, 28 °C
T1 construct: N-terminal His6 tag (same procedure as GnmP), E. coli, plasmid pBS21022; PLP-dependent

WsmR-SH = test system: T2, WsmR-SH; assay: pyruvate release, OPD derivatization, HPLC; type: biochemical, Streptomyces sp. CB02120-2; conditions: 0.2 mM PLP, 20 mM KCl, 28 °C
T2 construct: N-terminal His6 tag (same procedure as GnmP), E. coli, plasmid pBS22010; PLP-dependent

LnmJ-SH = biological target: T3, LnmJ-SH (Streptomyces atroolivaceus, UniProt Q8GGP2); assay: pyruvate release, OPD derivatization, HPLC; type: biochemical; conditions: 0.2 mM PLP, 20 mM KCl, 28 °C
T3 construct: E. coli, plasmid pBS3109, published procedure; PLP-dependent

GnmP [1] = test system: T4, GnmP; assay: HPLC of S-methylated product; type: biochemical, Streptomyces sp. CB01883; conditions: 2 mM SAM; 50 mM sodium phosphate pH 8.0; 28 °C
T4 construct: N-terminal His6-tagged GnmP, E. coli BL21(DE3), plasmid pBS21021

GnmP [2] = test system: T4, GnmP; assay: HPLC of methylated product […], WsmR-SH coupled; type: biochemical, Streptomyces sp. CB01883; conditions: 7 generated in situ from 9 as surrogate substrate by 220 µM WsmR-SH; 2 mM SAM; 50 mM sodium phosphate pH 8.0; 28 °C; methods print substrate range in mM

T3 sequence (Q8GGP2 entry or part of it): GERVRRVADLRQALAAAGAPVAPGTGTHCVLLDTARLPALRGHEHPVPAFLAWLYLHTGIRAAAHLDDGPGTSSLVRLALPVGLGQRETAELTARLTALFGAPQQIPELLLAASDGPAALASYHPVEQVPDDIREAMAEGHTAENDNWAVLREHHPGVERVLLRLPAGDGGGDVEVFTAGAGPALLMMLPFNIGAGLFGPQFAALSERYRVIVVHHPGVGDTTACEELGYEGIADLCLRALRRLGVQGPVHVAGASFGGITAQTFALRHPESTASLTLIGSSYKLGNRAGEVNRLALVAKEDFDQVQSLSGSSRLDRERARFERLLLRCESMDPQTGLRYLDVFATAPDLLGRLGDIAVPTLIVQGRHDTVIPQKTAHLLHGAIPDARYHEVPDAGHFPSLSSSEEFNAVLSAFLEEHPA

Row | Compound | Km (GnmT-SH; 50 mM sodium phosphate pH 7.2) [mM] | Km (WsmR-SH; 50 mM sodium phosphate pH 7.2) [mM] | Km (LnmJ-SH; 50 mM sodium phosphate pH 7.2) [mM] | also measured
1 | CC(=O)NCCSC(=O)CC(C)(C)SC[C@H](N)C(=O)O [compound 16, N-acetylcysteamine thioester (SNAC) of a truncated L-cysteine-polyketide adduct] | 41 ± 5 | 54 ± 10 | 69 ± 11 | 
2 | CC(=O)NCCSC(=O)CC(C)(C)SSC[C@H](N)C(=O)O [compound 17, SNAC of a truncated L-thiocysteine-polyketide adduct] | 7.7 ± 1.2 | 6.6 ± 0.7 | 9 ± 0.9 | 
3 | GNM B [compound 4] |  |  |  | Km (GnmP [1]): 12.1 ± 2.2 µM
4 | GNM P [compound 7] |  |  |  | Km (GnmP [2]): 0.00245 ± 0.00041 mM
5 | L-cysteinyl-GNM B adduct [compound 9] |  |  |  | Km (GnmT-SH; 50 mM sodium phosphate pH 8.0): 3.2 ± 0.3 mM; Km (WsmR-SH; 50 mM sodium phosphate pH 8.0): 1.45 ± 0.12 mM; Km (LnmJ-SH; Tris-HCl pH 8.5): 7.04 ± 0.84 mM

— PMC8479088, “Thiocysteine lyases as polyketide synthase domains installing hydropersulfide into natural products and a hydropersulfide methyltransferase” (Nature Communications, 2021)
